Among the test systems are DLD-1 colon; MCF7 breast; KM20L2 colon; NCI/ADR-RES ovarian; CAKI-1 renal; EKVX NSCLC; SR leukemia; SK-MEL-2 melanoma; TK-10 renal; T-47D breast; OVCAR-5 ovarian.
Assay in all cases: growth of human tumour cells (NCI), 48 h

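48-hour exposure; five concentrations; linearly interpolated endpoints. Abbreviation: GI50, concentration required for 50% inhibition of growth. The concentration for full growth arrest is given as TGI.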 A value given as a limit tells only on which side of the number the result lay.

For the compound `Nc1ccn(C2OC(CO)C(O)C2O)c(=O)c1` (configuration not stated), the TGI in the assay on DLD-1 colon, with MCF7 breast, in the assay on KM20L2 colon, in the assay on NCI/ADR-RES ovarian and in the assay with CAKI-1 renal was > 625 µM throughout.

`CN1C2CCC1CC(C)(O)C2` (configuration not stated): the TGI in the assay on EKVX NSCLC, in the assay on SR leukemia, in the assay on SK-MEL-2 melanoma, in the assay with MCF7 breast, with TK-10 renal and in the assay with NCI/ADR-RES ovarian was > 100 µM each time. Besides, in the assay on T-47D breast, the TGI is > 100 µM.

Consider `COc1ccc(-c2nn(-c3ccc(NC(=O)Nc4cc(C(F)(F)F)cc(C(F)(F)F)c4)cc3)cc2-c2ccncc2)cc1Cl`, for which the GI50 in the assay on EKVX NSCLC is 3.22 µM; with SR leukemia it was 2.54 µM; in the assay with SK-MEL-2 melanoma, 1.93 µM; in the assay on OVCAR-5 ovarian it was 2.64 µM; in the assay with MCF7 breast, 2.86 µM; in the assay with TK-10 renal, 1.85 µM. Besides, the GI50 in the assay with NCI/ADR-RES ovarian was 2.91 µM; in the assay on T-47D breast, 4.1 µM; in the assay with CAKI-1 renal it was 2.51 µM. Moreover, the TGI in the assay on EKVX NSCLC is > 100 µM; in the assay with SR leukemia it was 6.56 µM; in the assay on SK-MEL-2 melanoma it was 4.38 µM; with OVCAR-5 ovarian it was 14.7 µM; with MCF7 breast, 9.72 µM; in the assay on TK-10 renal, 7.25 µM. In addition, the TGI is > 100 µM in the assay on NCI/ADR-RES ovarian, 83.3 µM in the assay on T-47D breast and > 100 µM in the assay on CAKI-1 renal.

Turning to `COc1ccc(N2C(=O)CSC2c2c[nH]c3ccccc23)cc1` (configuration not stated), the TGI with EKVX NSCLC, with SR leukemia, with OVCAR-5 ovarian, with MCF7 breast, in the assay on TK-10 renal and with T-47D breast was > 100 µM in each case.

For `O=C(N/N=C/c1cc(Br)cc(Br)c1[O-])c1ccccc1O.O=C(N/N=C/c1cc(Br)cc(Br)c1[O-])c1ccccc1O.[Cu+2]`, the TGI with SR leukemia was found to be 1.17 µM; in the assay on SK-MEL-2 melanoma it was 1.93 µM; in the assay on OVCAR-5 ovarian, 2.03 µM; with KM20L2 colon, 2.09 µM; in the assay on TK-10 renal, 1.58 µM.

For `COc1ccc(C2COc3cc(O)c(O)cc3C2)cc1` (configuration not stated), the TGI was determined as 49.9 µM in the assay with EKVX NSCLC; 25.3 µM with DLD-1 colon; 146 µM with SK-MEL-2 melanoma; 264 µM in the assay on OVCAR-5 ovarian; 176 µM with MCF7 breast; 221 µM in the assay on KM20L2 colon. Moreover, the TGI is 27.1 µM in the assay with NCI/ADR-RES ovarian and 52.9 µM in the assay with CAKI-1 renal.

Take `O=c1c(C(c2ccc(Cl)cc2)c2c(O)c3ccccc3n(-c3ccccc3)c2=O)c(O)c2ccccc2n1-c1ccccc1`: the TGI is 91.1 µM with EKVX NSCLC; > 100 µM with SR leukemia; > 100 µM in the assay on DLD-1 colon; 86.1 µM in the assay with SK-MEL-2 melanoma; > 100 µM with OVCAR-5 ovarian; > 100 µM with KM20L2 colon. Further, the TGI in the assay with TK-10 renal and with CAKI-1 renal was > 100 µM throughout.

These data come from PubChem BioAssay (NCI).
